Measured values: US10781183B2, “Small molecule inducers of reactive oxygen species and inhibitors of mitochondrial activity” (The Regents of the University of Michigan, priority 2016, dated 2020)
Like-named read-outs stand apart in the source and are kept apart here.

How the values were obtained:
MiaPaCa-2 cells [1] = test: MTT cytotoxicity assay, MiaPaCa-2; type: cell-based; settings: for IC50: Homo sapiens, Mean ± SD, three independent experiments
BxPC-3 cells = test: MTT cytotoxicity assay, BxPC-3; type: cell-based; settings: Homo sapiens, three independent experiments
MiaPaCa-2 cells [2] = test: ROS detection assay (H2DCFDA probe); type: cell-based
Description: To quantify ROS induction by redox modulators, a high throughput ROS assay in 384-well plates using H2DCFDA as the ROS detection probe was developed (FIG. 1A).
Cells were detached by 0.05% trypsin-EDTA, neutralized, centrifuged (1200 rpm, 5 min) and resuspended in cell culture media. Suspension were then treated with 20 μM cell permeable H2DCFDA for 30 min at 37° C. Cells were then centrifuged (1200 rpm, 5 min) and washed with cell culture media to remove excess probe. After washing, cells were placed in black-wall 384-well plate at 20,000 cells/well, incubated for 30 min and treated by compounds at designated conditions. Fluorescent signal were then read at 493 nm/523 nm on BioTek H1 plate reader for ROS detection.

[3] = system: mtDNA content in MiaPaCa-2 cells; test: Measurement of mtDNA content by qPCR; type: cell-based; settings: MiaPaCa-2 (FIG. 11C)
Description: To assess mtDNA content, genomic DNA was isolated with QIAamp® DNA mini kit (Qiagen, Germantown, Md.) from MiaPaCa-2 cells. The mtDNA content was evaluated by co-amplifying a DNA fragment encoding mitochondrial 12S rRNA (forward primer: 5′-[…]-3′; reverse primer: 5′-TGCGCTTACTTTGTAG CCTTCAT-3′) and a DNA fragment encoding the nuclear 18S rRNA (forward primer: 5′-CCCTGCC CTTTGTACACACC-3′; reverse primer: 5′-GATCCGAGGGCCTCACTA-3′). (Vadrot et al., 2012) Real-time qPCR was performed on Viia7 cycler (Applied Biosystems). Amplifications were monitored and analyzed by measuring the intercalation of the fluorescent dye from Fast SYBR® Green Master Mix (Applied Biosystems). Relative mtDNA contents were calculated using 18S rRNA as gene reference.

HPDE = test: MTT cytotoxicity assay, immortalized pancreatic cell line HPDE; type: cell-based, human; settings: HPDE vs MiaPaCa-2
Description: MiaPaCa-2, Panc-1 and BxPC-3 pancreatic cancer cell lines were obtained from the ATCC. Normal pancreatic cells HPDE and HPNE were kindly provided (Translational Oncology Program, University of […], Ann Arbor, Mich.). Gemcitabine resistant cell line MiaPaCa-2-GR (gemcitabine resistant) was kindly provided (Department of Pathology, Wayne State University, Detroit, Mich.). All cell lines were cultured as monolayer and maintained in RPMI1640 supplemented with 10% fetal bovine serum (FBS) in a humidified atmosphere with 5% CO2 at 37° C. MiaPaCa-2-GR culture was supplemented with 200 nM gemcitabine.
Cytotoxicity of compounds was evaluated with 3-(4,5-dimethylthiazol-2-yl)-2,5-diphenyltetrazolium bromide (MTT) assay. Cells were placed in 96-well plate at 3000-8000 cells/well. After overnight attachment, compounds were added to the wells at sequential dilutions (30 nM-10 μM for most cell lines). After 72 h treatment, MTT was added into the media to a final concentration of 300 μg/mL. Cells were incubated for 3 h at 37° C., and the insoluble formazan converted by viable cells were dissolved in 150 μL of DMSO. Absorbance at 570 nm was read by microplate reader (Molecular devices, Sunnyvale, Calif.), and inhibition of cell proliferation was calculated using the following formula: Inhibition of cell proliferation (%)=(1−ODtreatment/ODcontrol)×100%

MiaPaCa-2 xenograft = MiaPaCa-2 xenograft studies; type: in vivo, NOD/SCID mice
Description: (§1) MiaPaCa-2 cells (2.0×10^6) in a 100 μL suspension of RPMI1640 was injected subcutaneously into dorsal flank of 6-week NOD/SCID mice. Tumor size was monitored twice a week through caliper measurement using the following equation: V=d^2×D/2, where d represents width and D represents length of the tumor. In study 1, mice were randomly grouped (n=5 per group) when average tumor size reached 65 mm^3. Daily treatment was given at five days on two days off cycles. QD325 was given at 5 mg/kg in 100 μL vehicle (5% DMSO, 60% Propylene glycol, 35% Saline) by intraperitoneal injection. […] Unpaired t test was performed for data analysis and p<0.05 was considered significant. […] Procedures for study 2 with gemcitabine treatment are detailed in supplemental information.
(§2) On necropsy, tumors, hearts, kidneys, livers, lungs, spleens and pancreases were collected, fixed in 10% neutral buffered formalin, embedded in paraffin, and sectioned. Sections ([…]) were stained with hematoxylin and eosin to facilitate histologic examination. For Ki67 expression level, immunohistochemistry staining was performed on sections with Ki67 antibody. Embedding, sectioning and staining of samples were performed by ULAM pathology core for animal research at the University of Michigan. Representative images were taken on Olympus IX83 microscope with 20× magnification.

[4] = Systemic toxicity in MiaPaCa-2 engrafted mice
Description: as §1, §2

O=C1C(Nc2ccc(-c3ccccc3)cc2)=CC(=O)c2ncncc21 [QD325, 6-([1,1′-biphenyl]-4-ylamino)quinazoline-5,8-dione]
IC50 (MiaPaCa-2 cells [1]; MIA PaCa-2, 72 h, Table 1, MTT assay, 72 h): < 1000 nM
IC50 (MiaPaCa-2 cells [1]; MIA PaCa-2, Table 2, MTT assay, read-out: IC 50 MiaPaCa-2): 900 ± 200 nM
improvement in cytotoxicity compared with QD232 (MiaPaCa-2 cells [1]; MTT assay in PDAC cell lines MiaPaCa-2, Panc-1 and BxPC-3): more than two fold improvement in cytotoxicity
cytotoxicity in presence of NAC (MiaPaCa-2 cells [1]; MTT assay, 72 h, NAC 5 mM (FIG. 3C)): decreased cytotoxicity
IC50 (BxPC-3 cells; BXPC-3, 72 h, Table 1, 72 h, Mean ± SD): < 1000 nM
IC50 (BxPC-3 cells; BXPC-3, Table 2, Mean ± SD, read-out: IC 50 BxPC-3): 500 ± 100 nM
ROS induction compared with lead compound QD232 (MiaPaCa-2 cells [2]; MiaPaCa-2, 24 h treatment, 10 μM (FIG. 1C)): significantly higher ROS induction than the lead compound QD232
accumulation of ROS (MiaPaCa-2 cells [2]; MiaPaCa-2, 10, 3.3 or 1.1 μM (FIG. 3A)): time- and dose-dependent accumulation of ROS
ROS accumulation at 10 and 3.3 μM (MiaPaCa-2 cells [2]; MiaPaCa-2, 10 and 3.3 μM): rapid and high ROS accumulation
ROS induction after NAC pretreatment (MiaPaCa-2 cells [2]; MiaPaCa-2, NAC 5 mM for 30 min pretreatment (FIG. 3B)): inhibited
relative levels of mtDNA over time [3]: decreased time dependently
selectivity for MiaPaCa-2 over HPDE (HPDE): 3 fold
average tumor size at the end of the 48-day treatment period (MiaPaCa-2 xenograft; QD325 5 mg/kg five times a week, gemcitabine 15 mg/kg once a week, control 1503±189 mm^3): 248±72 mm^3
growth of tumors (MiaPaCa-2 xenograft; QD325 5 mg/kg i.p. five times a week, treatment period of 44 days): significantly delayed growth of tumors
average tumor size on day 44 (MiaPaCa-2 xenograft; QD325 5 mg/kg i.p. five times a week, n=5, control 1291±168 mm^3): 308±72 mm^3
NQO1, HO-1, CHOP and GRP78 protein levels in tumor lysates (MiaPaCa-2 xenograft; QD325 treated tumors vs vehicle controls (FIG. 12E)): significantly upregulated
growth of tumors at higher doses (MiaPaCa-2 xenograft; after day 44, dose increased from 5 to 20 mg/kg until day 67, two mice per group): able to delay growth of the tumors
Ki67 levels in tumor tissues (MiaPaCa-2 xenograft; immunohistochemistry of xenograft sections, QD325 5 mg/kg (FIG. 12D)): decreased Ki67 levels
body weight of engrafted mice ([4]; QD325 5 mg/kg (FIG. 12B)): not affected
body weight of engrafted mice ([4]; QD325 5-20 mg/kg (FIG. 13B)): not affected
systemic toxicity at higher doses ([4]; doses as high as 20 mg/kg): no systemic toxicity was observed
histopathology of H&E stained organ sections ([4]; liver, kidney, heart, lung, spleen and pancreas, QD325 5 mg/kg (FIG. 12C)): did not reveal major histopathological changes
